# From patent US20230312561A1, “SOLID FORMS OF (Z)-METHYL 3-(((4-(N-METHYL-2-(4-METHYLPIPERAZIN-1-YL)ACETAMIDO)PHENYL)AMINO)(PHENYL)METHYLENE)-2-OXO-2,3-DIHYDRO-1H-PYRROLO[2,3-B]PYRIDINE-6-CARBOXYLATE AND SALTS THEREOF” (Angion Biomedica Corp., priority 2020, published 2023)
# Legend:
# Type in all cases: physicochemical
# [1] = Biorelevant solubility (water, saline, FaSSIF, FeSSIF, FaSSGF, 37° C.)
# Method: Due to pH drift in a previous study (see Example 12.1), in order to obtain a more accurate pH solubility evaluation, a study was designed using water, saline, FaSSIF (fasted state simulated intestinal fluid, pH 6.5), […] (fed state simulated intestinal fluid, pH 5.0), and FaSSGF (fasted state simulated gastric fluid, pH 1.6), which would ensure ending pH and buffer pH remained the same. […] The study design was successful, and all initial pH values were maintained. […] The pH was measured constantly during the addition up to the point of movement in the buffer, at which point additions were halted and the solutions or suspensions matured over 48 hours at 37° C. Samples were taken for solubility evaluation at the specified time-points and clarified through 0.45 micron filters and pH measured on the settled suspensions. Solubility was determined vs a 0.5 mg/mL reference. 35 mg portions were added to FaSSGF and FeSSIF maintaining solutions.
# [2] = Solid state stability in sealed vial (XRPD, TGA, HPLC)
# Method: High performance liquid chromatography (HPLC) was performed according to the conditions described in Table 1: […] Upon storage for the appropriate period, the entire sample was removed, and the resulting solids assessed via XRFD, HPLC and TGA. Sample preparation for HPLC was conducted using deionized water and a working concentration of 0.5 mg/mL. […] A control sample was packed and stored in an equivalent manner and tested at T=2 and 4 weeks. Form A was stable at 40° C. and 80° C. for at least up to 4 weeks.
# [3] = pH-dependent solubility (NaOH titration, pH 3-8); details: 25° C.
# Method: A titration and solubility determination of Compound 1 Hydrochloride Form A (Type 1 Lot) was performed using NaOH over a pH range of 3-8. A solution was produced at 25° C. with magnetic agitation by combining 100 mg Compound 1 Hydrochloride Form A (Type 1 Lot) into 5 mL deionized water to give a concentration of 20 mg/mL within a clean glass vessel. […] The solution was slowly basified using 1.0 N, 0.1 N, and 0.01 N NaOH (with the lower concentrations being used to finely adjust pH close to the end point target pH and avoid overshooting) to achieve pH values of 4, 5, 5.5, 6, 7, and 8. […] The concentration of the test solution was lowered at pH 6 from 20 mg/mL to 5 mg/mL with repeat testing at each concentration to illustrate salt impact. Each pH value was allowed to equilibrate to stability prior to solubility evaluation via HPLC assessment of the clarified liquors. Dilution by 100× or 50× into the working range was performed using deionized water.
# [4] = Solid state stability under desiccant conditions (two weeks)
# Method: Stability of Compound 1 Hydrochloride Forms A and C was evaluated under desiccant conditions. Compound 1 Hydrochloride Form A (Type 1 Lot) and a mixture comprising Compound 1 Hydrochloride Form A (Type 2 Lot) and Form C were stored under desiccant conditions for a two week period. Solids were then re-analyzed using methods described herein.
# [5] = 40° C., sealed vial, T = 1 week
# [6] = 40° C., sealed vial, T = 2 weeks
# [7] = 40° C., sealed vial, T = 4 weeks
# [8] = 80° C., sealed vial, T = 1 week
# [9] = 80° C., sealed vial, T = 2 weeks
# [10] = 80° C., sealed vial, T = 4 weeks
# [11] = 150° C., sealed vial, T = 1 week
structure (smiles),measurement,setting,value
COC(=O)c1ccc2c(c1)NC(=O)/C2=C(\Nc1ccc(N(C)C(=O)CN2CCN(C)CC2)cc1)c1ccccc1.Cl [Compound 1 Hydrochloride Form A (Type 1 Lot)],solubility in saline,[1],> 50 mg/mL
same,solubility in water,[1],> 50 mg/mL
same,Final pH,[1]; 0.9% NaCl,3.03
same,Solubility (mg/mL) T = 1 h,[1]; 0.9% NaCl,>50 mg/mL
same,Solubility (mg/mL) T = 3 h,[1]; 0.9% NaCl,>50 mg/mL
same,Solubility (mg/mL) T = 6 h,[1]; 0.9% NaCl,>50 mg/mL
same,Solubility (mg/mL) T = 24 h,[1]; 0.9% NaCl,>50 mg/mL
same,Final pH,[1]; FaSSGF (starting pH 1.6),1.65
same,Solubility (mg/mL) T = 1 h,[1]; FaSSGF (starting pH 1.6),>35 mg/mL
same,Solubility (mg/mL) T = 3 h,[1]; FaSSGF (starting pH 1.6),>35 mg/mL
same,Solubility (mg/mL) T = 6 h,[1]; FaSSGF (starting pH 1.6),>35 mg/mL
same,Solubility (mg/mL) T = 24 h,[1]; FaSSGF (starting pH 1.6),>35 mg/mL
same,Final pH,[1]; FaSSIF (starting pH 6.5),6.13
same,Solubility (mg/mL) T = 1 h,[1]; FaSSIF (starting pH 6.5),2.41 mg/mL
same,Solubility (mg/mL) T = 3 h,[1]; FaSSIF (starting pH 6.5),3.38 mg/mL
same,Solubility (mg/mL) T = 6 h,[1]; FaSSIF (starting pH 6.5),3.74 mg/mL
same,Solubility (mg/mL) T = 24 h,[1]; FaSSIF (starting pH 6.5),5.12 mg/mL
same,Final pH,[1]; FeSSIF (starting pH 5.0),4.98
same,Solubility (mg/mL) T = 1 h,[1]; FeSSIF (starting pH 5.0),>35 mg/mL
same,Solubility (mg/mL) T = 3 h,[1]; FeSSIF (starting pH 5.0),>35 mg/mL
same,Solubility (mg/mL) T = 6 h,[1]; FeSSIF (starting pH 5.0),>35 mg/mL
same,Solubility (mg/mL) T = 24 h,[1]; FeSSIF (starting pH 5.0),>35 mg/mL
same,Final pH,[1]; Water,3.04
same,Solubility (mg/mL) T = 1 h,[1]; Water,>50 mg/mL
same,Solubility (mg/mL) T = 3 h,[1]; Water,>50 mg/mL
same,Solubility (mg/mL) T = 6 h,[1]; Water,>50 mg/mL
same,Solubility (mg/mL) T = 24 h,[1]; Water,>50 mg/mL
same,solubility in FeSSIF,[1]; pH 5.0,> 50 mg/mL
same,solid state stability in sealed vial,"[2]; 40° C. and 80° C., at least up to 4 weeks",stable
same,HPLC (%),[2]; [5],99.43%
same,TGA (%),[2]; [5],12.01%
same,HPLC (%),[2]; [6],99.43%
same,TGA (%),[2]; [6],12.15%
same,HPLC (%),[2]; [7],99.65%
same,TGA (%),[2]; [7],11.6%
same,XRPD,[2]; [7],Form A
same,HPLC (%),[2]; [8],99.53%
same,TGA (%),[2]; [8],3.76%
same,HPLC (%),[2]; [9],99.45%
same,TGA (%),[2]; [9],3.71%
same,HPLC (%),[2]; [10],99.59%
same,TGA (%),[2]; [10],3.35%
same,HPLC (%),[2]; [11],36.6%
same,TGA (%),[2]; [11],1.14%
same,HPLC (%),"[2]; Ambient (control), T = 0",99.54%
same,TGA (%),"[2]; Ambient (control), T = 0",12.07%
same,HPLC (%),"[2]; Ambient (control), T = 2 weeks",99.43%
same,TGA (%),"[2]; Ambient (control), T = 2 weeks",11.99%
same,HPLC (%),"[2]; Ambient (control), T = 4 weeks",99.53%
same,TGA (%),"[2]; Ambient (control), T = 4 weeks",12.15%
same,XRPD,"[2]; Ambient (control), T = 4 weeks",Form A
same,initial pH reading of solution,"[3]; 20 mg/mL in deionized water, stable over 10 minutes",3.03
same,Solubility,"[3]; pH 3.03, starting concentration 20 mg/mL",>20 mg/mL
same,Solubility,"[3]; pH 4.0, starting concentration 20 mg/mL",>20 mg/mL
same,Solubility,"[3]; pH 5.0, starting concentration 20 mg/mL",16.0 mg/mL
same,Solubility,"[3]; pH 5.5, starting concentration 20 mg/mL",0.7 mg/mL
same,Solubility,"[3]; pH 6.0, starting concentration 5 mg/mL",0.06 mg/mL
same,Solubility,"[3]; pH 6.0, starting concentration 20 mg/mL",0.06 mg/mL
same,Solubility,"[3]; pH 7.0, starting concentration 5 mg/mL",0.05 mg/mL
same,Solubility,"[3]; pH 8.0, starting concentration 5 mg/mL",0.001 mg/mL
same,Appearance After Storage,[4],Yellow powder
same,TGA weight reduction,[4],Weight reduction of 5.6%
same,XRPD,[4],Form A
